According to patent publication US8450333B2, “Molecules for regulating cell death” (The Regents of The University of California, priority 2003, dated 2013):

Experiments:
wild type yeast cells = experiment: Mitochondrial morphology in yeast (secondary screen, mitochondrial targeted GFP); assay type: cell-based, S. cerevisiae; conditions: for % fragmented / % nets / % reticular: Structure Function Analysis of Compound A1, yeast; for % net-like structures: yeast, each at a concentration of 50 μM
Source text: Secondary screens: Compounds identified in the primary growth assay-based screens outlined above are screened secondarily by examining their effects on mitochondrial morphology. We use the steady state structure of mitochondria as an indicator of the relative rates of mitochondrial fission and fusion in cells. […] Mitochondria are visualized using a mitochondrial targeted GFP that is efficiently targeted to both wild type and respiratory deficient mitochondria (Tieu et al., 2000 The Journal of Cell Biology 151, 353-365.).
All compounds identified in the primary growth assay-based screens outlined above were screened secondarily by examining their effects on mitochondrial morphology in yeast. From previous work, we know that the steady state structure of mitochondria is an indicator of the relative rates of mitochondrial fission and fusion in cells (FIG. 7). Specifically, net-like structures indicate a block in fission, and fragmented mitochondrial structures indicate a block in fusion. […] In this secondary assay, small molecules were judged to be a hit if they produced a mutant phenotype in greater than 5% of the cell population.
To determine what structural features are important for the effects of mfisi-1 on mitochondrial fission, we identified structurally related molecules using a chemoinformatics approach. We utilized web-based ChemNavigator to search available public and commercial compound databases for small molecules that uniquely represented key structural features of mfisi-1. We tested a total of 15 small molecules related to mfisi-1 for their effects on mitochondrial morphology in yeast, each at a concentration of 50 μM (Table 3).

mammalian COS cells = experiment: Mitochondrial fragmentation induced by staurosporine (STS) in COS cells; assay type: cell-based; conditions: COS cells stimulated with STS; mfisi-1 at 50 μM; n=100
Source text: As indicated above, we observed that mfisi-1 causes changes in mitochondrial morphology in mammalian cells that are consistent with a block in mitochondrial fission. Thus, we examined the effects of mfisi-1 on mitochondrial fragmentation caused by the intrinsic apoptotic stimulus staurosporine (STS) in mammalian COS cells. […] These observations indicate that mfisi-1 retards apoptosis-stimulated Drp1-dependent mitochondrial fission.

[1] = tested on: actin cytoskeleton and peripheral ER network; experiment: Actin cytoskeleton and peripheral ER network in yeast; assay type: cell-based; conditions: added after mfisi-1 treatment
Source text: These structures are routinely examined in yeast mitochondrial morphology mutants as a test for the specificity of the mitochondrial phenotype.

Row | Compound | % fragmented (wild type yeast cells) [%] | % nets (wild type yeast cells) [%] | % reticular (wild type yeast cells) [%] | % net-like structures (wild type yeast cells) [%] | other results
1 | C=CCSc1nc2ccccc2c(=O)n1-c1cccc(C)c1 [drawing 13] | 8 | 1 | 91 | – | –
2 | O=C(O)CSc1nc2ccccc2c(=O)n1-c1ccccc1 [(4-oxo-3-phenyl-3,4-dihydro-quinazolin-2-ylsulfanyl)-acetic acid] | – | – | – | 5 | –
3 | O=c1c2ccccc2nc(S)n1Cc1ccccc1 | 6 | 5 | 89 | – | –
4 | C=CCSc1nc2ccccc2c(=O)n1-c1ccccc1OC [drawing 18] | 3.2 | 0 | 96.8 | – | –
5 | CSc1nc2ccccc2c(=O)n1-c1cccc(C)c1 [2-Methylsulfanyl-3-m-tolyl-3H-quinazolin-4-one] | – | – | – | 0 | –
6 | COc1ccccc1-n1c(S)nc2ccccc2c1=O [drawing 16] | 32 | 0 | 68 | – | –
7 | CSc1nc2ccccc2c(=O)n1-c1cccc(C)c1 [drawing 14] | 6 | 0 | 94 | – | –
8 | C=CCSc1nc2ccccc2c(=O)n1-c1ccccc1OC [2-Allylsulfanyl-(2-methoxy-phenyl)-3H-quinazolin-4-one] | – | – | – | 0 | –
9 | C=CCSc1nc2ccccc2c(=O)n1-c1cccc(C)c1 [2-Allylsulfanyl-3-m-tolyl-3H-quinazolin-4-one] | – | – | – | 1 | –
10 | CN[C@@H]1C[C@H]2O[C@@](C)([C@@H]1OC)n1c3ccccc3c3c4c(c5c6ccccc6n2c5c31)C(=O)NC4 [STS, staurosporine, reference compound] | – | – | – | – | % collapsed nets (mammalian COS cells): 0%; % fragmented (mammalian COS cells): 86%; % loose nets (mammalian COS cells): 0%; % reticular (mammalian COS cells): 14%
11 | Cc1ccccc1-n1c(S)nc2ccccc2c1=O [drawing 8] | 8 | 29 | 63 | – | –
12 | COc1cc(-n2c(SC)nc3cc(Cl)ccc3c2=O)c(Cl)cc1Cl [mfisi-1.1, 7-chloro-3-(2,4-Dichloro-5-methoxy-phenyl)-2-methylsulfanyl-3H-quinazolin-4-one] | – | – | – | 7 | –
13 | O=C(O)CSc1nc2ccccc2c(=O)n1-c1ccccc1 [drawing 11] | 8 | 5 | 87 | – | –
14 | C=CCSc1nc2ccccc2c(=O)n1Cc1ccccc1 [2-Allylsulfanyl-3-benzyl-3H-quinazolin-4-one] | – | – | – | 0 | –
15 | CCSc1nc2ccccc2c(=O)n1-c1cccc(C)c1 [2-Ethylsulfanyl-3-m-tolyl-3H-quinazolin-4-one] | – | – | – | 2 | –
16 | CSc1nc2ccccc2c(=O)n1Cc1ccccc1 [3-Benzyl-2-methylsulfanyl-3H-quinazolin-4-one] | – | – | – | 5 | –
17 | COc1cc(-n2c(SC)nc3ccccc3c2=O)c(Cl)cc1Cl [drawing 9] | 11 | 7 | 82 | – | –
18 | Cc1cccc(-n2c(S)nc3ccccc3c2=O)c1 [2-Mercapto-3-m-tolyl-3H-quinazolin-4-one] | – | – | – | 0 | –
19 | Cc1ccccc1-n1c(S)nc2ccccc2c1=O [2-Mercapto-3-o-tolyl-3H-quinazolin-4-one] | – | – | – | 30 | –
20 | CSc1nc2cc(Cl)ccc2c(=O)n1-c1cc(OC(C)C)c(Cl)cc1Cl [mfisi-1.3, 7-chloro-3-(2,4-Dichloro-5-isopropoxy-phenyl)-2-methylsulfanyl-3H-quinazolin-4-one] | – | – | – | 2 | –
21 | CCSc1nc2ccccc2c(=O)n1-c1cccc(C)c1 [drawing 12] | 51 | 1 | 48 | – | –
22 | COc1cc(-n2c(SC)nc3ccc(Cl)cc3c2=O)c(Cl)cc1Cl [mfisi-1.4, 6-chloro-3-(2,4-Dichloro-5-methoxy-phenyl)-2-methylsulfanyl-3H-quinazolin-4-one] | – | – | – | 2 | –
23 | COc1cc(-n2c(SC)nc3ccccc3c2=O)c(Cl)cc1Cl [mfisi-1.2, 3-(2,4-Dichloro-5-methoxy-phenyl)-2-methylsulfanyl-3H-quinazolin-4-one] | – | – | – | 7 | –
24 | C/C1=C/C(=O)O[C@@H]2C[C@@H](CC[C@H](C)/C=C\C=C\CC1)O[C@@](O)([C@@H]1CSC(=O)N1)C2 [Latrunculin-A] | – | – | – | – | effect on actin cables and patches [1]: complete disruption of actin cables and patches; effect on mitochondrial nets [1]: caused mitochondrial nets to collapse and aggregate
25 | Cc1cccc(-n2c(S)nc3ccccc3c2=O)c1 [drawing 15] | 0 | 0 | 100 | – | –
26 | O=c1c2ccccc2nc2n1CCS2 [2,3-Digydor-thiazolo[2,3-b]quinazolin-4-one] | – | – | – | 0 | –
27 | O=c1c2ccccc2nc2n1CCS2 [drawing 19] | 7.3 | 0 | 92.7 | – | –
28 | COc1ccccc1-n1c(S)nc2ccccc2c1=O [2-Mercapto-3-(2-methoxy-phenyl)-3H-quinazolin-4-one] | – | – | – | 0 | –
29 | C=CCSc1nc2ccccc2c(=O)n1Cc1ccccc1 [drawing 17] | 69 | 0 | 31 | – | –
